Like-named read-outs stand apart in the source and are kept apart here.
Legend:
[1] = system: phenyl-p-quinone-induced writhing syndrome of the mouse; assay: Writhing test (phenyl-p-quinone-induced writhing syndrome of the mouse); type: in vivo; conditions: dose protecting 50% of the animals
Protocol: 60 minutes after oral application of the test compounds mice were injected intraperitoneally with 0.3 ml of a 0.02% phenyl-p-quinone solution in a alcohol-water mixture (1:25 v/v). After the phenyl-p-quinone injection each mouse was observed during a span of 20 minutes.
The ED50 values (antiwrithing potency) were computed according to the method of N. R. Thompsom and C. S. Weil (Biometrics 8, 1952, 51-54, 249-263). The ED50 value refers to the dose (mg of test compound/kg of mouse) protecting 50% of the animals from pain in the writhing test.

[2] = U.S. Pat. No. 4,142,051; cited from earlier work
[3] = U.S. Pat. No. 3,988,345; U.S. Pat. No. 4,389,403; cited from earlier work
[4] = Mus musculus, oral, 60 min before i.p. phenyl-p-quinone, read-out: ED50 (antiwrithing potency)
[5] = po, writhing test, mouse, read-out: ED50 in the writhing test

SMILES	ED50 [1, 4]	other results
COc1ccc(C(=O)N2CCNC2=Nc2c(Cl)cccc2Cl)cc1OC [1-(3,4-dimethoxybenzoyl)-2-(2,6-dichlorophenylimino)-imidazolidine]	4.36 mg/kg	
COc1ccc(C(=O)N2CCNC2=Nc2c(C)cccc2Cl)cc1OC [1-(3,4-dimethoxybenzoyl)-2-(2-chloro-6-methylphenylimino)-imidazolidine]	4.42 mg/kg	
Cc1ccc(C(=O)N2CCNC2=Nc2c(Cl)cccc2Cl)cc1F [1-(3-fluoro-4-methylbenzoyl)-2-(2,6-dichlorophenylimino)-imidazolidine]	0.5 mg/kg	
Cc1cc(C(=O)N2CCNC2=Nc2c(Cl)cccc2Cl)ccc1[N+](=O)[O-] [1-(3-methyl-4-nitrobenzoyl)-2-(2,6-dichlorophenylimino)-imidazolidine]	0.68 mg/kg	
O=C(C1CC=CCC1)N1CCNC1=Nc1c(Cl)cccc1Cl (centres unmarked) [1-(cyclohex-3-en-1-oyl)-2-(2,6-dichlorophenylimino)-imidazolidine]		analgesic properties (prior art) [2]: exhibit analgesic properties
CS(=O)(=O)c1ccc(C(=O)N2CCNC2=Nc2c(Cl)cccc2Cl)cc1 [1-(p-methylsulfonylbenzoyl)-2-(2,6-dichlorophenylimino)-imidazolidine]	0.75 mg/kg	
CCCOc1ccc(C(=O)N2CCNC2=Nc2c(Cl)cccc2Cl)cc1 [1-(p-n-propoxybenzoyl)-2-(2,6-dichlorophenylimino)-imidazolidine]	0.46 mg/kg	
O=C(c1cccc(Cl)c1)N1CCNC1=Nc1c(Cl)cccc1Cl [1-m-chlorobenzoyl-2-(2,6-dichlorophenylimino)-imidazolidine]	0.81 mg/kg	
N#Cc1cccc(C(=O)N2CCNC2=Nc2c(Cl)cccc2Cl)c1 [1-m-cyanobenzoyl-2-(2,6-dichlorophenylimino)-imidazolidine]	0.25 mg/kg	
O=C(c1cccc(F)c1)N1CCNC1=Nc1cccc(Cl)c1Cl [1-m-fluorobenzoyl-2-(2,3-dichlorophenylimino)-imidazolidine]	2.08 mg/kg	
O=C(c1ccc(Cl)cc1)N1CCNC1=Nc1cccc(Cl)c1Cl [1-p-chlorobenzoyl-2-(2,3-dichlorophenylimino)-imidazolidine]	1.26 mg/kg	
O=C(c1ccc(Cl)cc1)N1CCNC1=Nc1ccc(Cl)cc1Cl [1-p-chlorobenzoyl-2-(2,4-dichlorophenylimino)-imidazolidine]	3.54 mg/kg	
N#Cc1ccc(C(=O)N2CCNC2=Nc2c(Cl)cccc2Cl)cc1 [1-p-cyanobenzoyl-2-(2,6-dichlorophenylimino)-imidazolidine]		ED50 [1, 5]: 0.55 mg/kg
CCOc1ccc(C(=O)N2CCNC2=Nc2c(Cl)cccc2Cl)cc1 [1-p-ethoxybenzoyl-2-(2,6-dichlorophenylimino)-imidazolidine]	0.98 mg/kg	
O=C(c1ccc(F)cc1)N1CCNC1=Nc1cccc(Cl)c1Cl [1-p-fluorobenzoyl-2-(2,3-dichlorophenylimino)-imidazolidine]	1.15 mg/kg	
O=C(c1ccc(F)cc1)N1CCNC1=Nc1cc(Cl)ccc1Cl [1-p-fluorobenzoyl-2-(2,5-dichlorophenylimino)-imidazolidine]	10 mg/kg	
O=C(c1ccc(F)cc1)N1CCNC1=Nc1c(Cl)cccc1Cl [1-p-fluorobenzoyl-2-(2,6-dichlorophenylimino)-imidazolidine]	0.81 mg/kg	
Cc1cccc(Cl)c1N=C1NCCN1C(=O)c1ccc(F)cc1 [1-p-fluorobenzoyl-2-(2-chloro-6-methylphenylimino)imidazolidine]	1 mg/kg	
CC(C)Oc1ccc(C(=O)N2CCNC2=Nc2c(Cl)cccc2Cl)cc1 [1-p-isopropoxybenzoyl-2-(2,6-dichlorophenylimino)-imidazolidine]	0.54 mg/kg	
COc1ccc(C(=O)N2CCNC2=Nc2cccc(Cl)c2Cl)cc1 [1-p-methoxybenzoyl-2-(2,3-dichlorophenylimino)-imidazolidine]	0.99 mg/kg	
COc1ccc(C(=O)N2CCNC2=Nc2c(Cl)cccc2Cl)cc1 [1-p-methoxybenzoyl-2-(2,6-dichlorophenylimino)-imidazolidine]	0.63 mg/kg	
CS(=O)(=O)c1ccc(C(=O)N2CCNC2=Nc2cccc(Cl)c2Cl)cc1 [1-p-methylsulfonylbenzoyl-2-(2,3-dichlorophenylimino)-imidazolidine]	1.04 mg/kg	
CCCCOc1ccc(C(=O)N2CCNC2=Nc2cccc(Cl)c2Cl)cc1 [1-p-n-butoxybenzoyl-2-(2,3-dichlorophenylimino-imidazolidine]		ED50 (antiwrithing potency) ([1]; oral, 60 min before i.p. phenyl-p-quinone): 4.49 mg of test compound/kg of mous
O=C(c1ccc([N+](=O)[O-])cc1)N1CCNC1=Nc1ccc(Cl)cc1Cl [1-p-nitrobenzoyl-2-(2,4-dichlorophenylimino)-imidazolidine]	1.77 mg/kg	
CC(C)=CCN1CCC2(C)c3cc(O)ccc3CC1C2C (centres unmarked) [Pentazocin, reference compound]		ED50 [1, 5]: 168 mg/kg
O=C(c1ccccc1)N1CCNC1=Nc1c(Cl)cccc1Cl [benclonidine, 1-benzoyl-2-(2,6-dichlorophenylimino)-imidazolidine]		antihypertensive / hypotensive effect (prior art) [3]: marked antihypertensive effect
